Experiment [1] concerns the target T1, B-Raf kinase (SEQ ID NO: 1) (Homo sapiens, UniProt P15056).
T1 construct: GST (N); purchased Sigma
As to the kind of experiment: Biochemical Assay for B-Raf (coupled pyruvate kinase/lactate dehydrogenase assay).

For another experiment, the system named is HPAF-II cells. As to the kind of experiment: HPAF-II Cell Proliferation Assay. It counts as cell-based. Conditions: Homo sapiens, HPAF-II. The gist of the method: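 HPAF-II cells (750/well) in complete MEM with 10% FBS were exposed to serially diluted compound in triplicate for 115–120 h at 37 °C, 5% CO2. Resazurin was then added for 18–24 h more; fluorescence (ex 540/em 600 nm) gave IC50.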

Setting [2] is: 1 mM ATP, read-out: BRAF (inhibition of biochemical activity, IC50).
Where [3] appears, read: Table 3, read-out: BRAF (IC50 class).
Where [4] appears, read: HPAF-II cells, Table 2, read-out: Inhibition of cell proliferation in HPAF-II (IC50 class).
Setting [5] is: Table 3, read-out: HPAF-II (IC50 class).

Read-outs that look alike come from different tables or passages of the source. Bounds are passed on as bounds.

T1 sequence (P15056 416-766): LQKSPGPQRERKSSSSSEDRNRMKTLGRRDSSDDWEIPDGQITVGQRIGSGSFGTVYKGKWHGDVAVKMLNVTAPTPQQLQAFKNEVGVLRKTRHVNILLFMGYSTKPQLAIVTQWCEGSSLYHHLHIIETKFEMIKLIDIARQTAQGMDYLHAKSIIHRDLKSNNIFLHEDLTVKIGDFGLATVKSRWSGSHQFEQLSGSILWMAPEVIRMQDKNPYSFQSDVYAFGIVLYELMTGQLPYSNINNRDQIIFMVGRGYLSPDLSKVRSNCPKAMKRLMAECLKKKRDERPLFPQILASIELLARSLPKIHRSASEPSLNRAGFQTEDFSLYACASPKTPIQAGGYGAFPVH

Consider `Cc1ccc(NC(=O)c2cnc(C(F)(F)F)nc2)cc1-c1ccnc(-c2ccnc(NC(=O)C3CC3)c2)c1` [Example 17], for which the IC50 in experiment [1] (setting [2]) is 100 to 500 nM; in experiment [1] (setting [3]), 100 to 500 nM; in the experiment on HPAF-II cells (setting [4]), less than 100 nM; in the experiment on HPAF-II cells (setting [5]), less than 100 nM.
Turning to `Cc1ccc(NC(=O)c2cc(C(C)(F)F)cnn2)cc1-c1ccnc(-c2ccnc(NC(=O)C3CC3)c2)c1` [Example 57], the IC50 (in experiment [1] (setting [2]); in experiment [1] (setting [3]); in the experiment on HPAF-II cells (setting [4]); in the experiment on HPAF-II cells (setting [5])) was less than 100 nM in each case.
With `Cc1ccc(NC(=O)c2cc(C#N)cnn2)cc1-c1ccnc(-c2ccnc(NC(=O)C3CC3)c2)c1` [Example 96, 5-cyano-N-(3-(2′-(cyclopropanecarboxamido)-[2,4′-bipyridin]-4-yl)-4-methylphenyl)pyridazine-3-carboxamide], the IC50 is less than 100 nM in experiment [1] (setting [2]), less than 100 nM in experiment [1] (setting [3]), 100 to 500 nM in the experiment on HPAF-II cells (setting [4]) and 100 to 500 nM in the experiment with HPAF-II cells (setting [5]).
In the case of `Cc1ccc(NC(=O)c2cc(C3CC3)cnn2)cc1-c1ccnc(-c2ccnc(NC(=O)C3CC3)c2)c1` [Example 43], the IC50 is less than 100 nM in experiment [1] (setting [2]), less than 100 nM in experiment [1] (setting [3]), 100 to 500 nM in the experiment with HPAF-II cells (setting [4]) and 100 to 500 nM with HPAF-II cells (setting [5]).
For `Cc1ccc(NC(=O)c2cc(C(F)(F)F)cnn2)cc1-c1ccnc(-c2ccnc(NC(=O)C3CC3)c2)c1` [Example 67], the IC50 (in experiment [1] (setting [2]); in experiment [1] (setting [3]); in the experiment with HPAF-II cells (setting [4]); in the experiment on HPAF-II cells (setting [5])) was less than 100 nM in each case.

Source of the values: patent publication US20260226084A1, “DUAL RAF AND TUBULIN INHIBITORS AND METHODS OF USE THEREOF” (Deciphera Pharmaceuticals, LLC, priority 2023, published 2026).
